Converted amounts (≈) assume the structure as drawn. The source made the active and inactive calls. The rule behind the calls is not given here. Peptide text beside a SMILES is read from it. Where only a bound is given, the exact number is not on record here.

From ChEMBL document CHEMBL1158129, “Cyclic heptapeptides from the Jamaican sponge Stylissa caribica” (J Nat Prod, 2006) come the findings set out here.

One assay concerns Microglia. As to the kind of experiment: Antiinflammatory activity against rat neonatal microglia. The format is functional, cell-based.
The subject of assay [1] is Human immunodeficiency virus 1. The assay can be described thus: Antiviral activity against HIV1 in human PBM cells. Format: functional, organism-based.
In a further assay the test system is Aspergillus fumigatus. The assay can be described thus: Antifungal activity against Aspergillus fumigatus. The format is functional, organism-based.
Another assay deals with Staphylococcus aureus. The assay can be described thus: Antibacterial activity against Staphylococcus aureus. The format is functional, organism-based.
The test system of a further assay is Pseudomonas aeruginosa. The assay can be described thus: Antibacterial activity against Pseudomonas aeruginosa. Format: functional, organism-based.
The subject of assay [2] is Plasmodium falciparum. The assay can be described thus: Antimalarial activity against Plasmodium falciparum D6. Format: functional, organism-based.
For the next assay, the system named is Candida albicans. As to the kind of experiment: Antifungal activity against Candida albicans. Format: functional, organism-based.
The test system of assay [3] is Mycobacterium tuberculosis. The assay can be described thus: Antimycobacterial activity against Mycobacterium tuberculosis. The format is functional, organism-based.
For another assay, the system named is Cryptococcus neoformans. As to the kind of experiment: Antifungal activity against Cryptococcus neoformans. The format is functional, organism-based.
Assay [4] deals with Mycobacterium intracellulare. As to the kind of experiment: Antibacterial activity against Mycobacterium intracellular. The format is functional, organism-based.
The subject of assay [5] is Plasmodium falciparum. As to the kind of experiment: Antimalarial activity against Plasmodium falciparum W2. The format is functional, organism-based.
For another assay, the system named is Leishmania donovani. The assay can be described thus: Antileishmanial activity against Leishmania donovani. The format is functional, organism-based.
For assay [6], the system named is Mycobacterium tuberculosis. As to the kind of experiment: Antimycobacterial activity against Mycobacterium tuberculosis at 128 ug/mL. Format: functional.
The next assay has as its system Bel-7402. The assay can be described thus: Cytotoxicity against human Bel-7402. Format: functional. The conditions noted are these: read-out: ED50 (the source's name).

Consider `CC[C@H](C)[C@@H]1NC(=O)[C@@H]2CCCN2C(=O)[C@H](Cc2ccccc2)NC(=O)[C@@H]2CCCN2C(=O)[C@@H]2CCCN2C(=O)[C@H](Cc2ccc(O)cc2)NC(=O)[C@@H]2CCCN2C1=O` (cyclo(FPIPYPP)), for which the result (with Microglia; in assay [1]; in the assay on Aspergillus fumigatus; with Staphylococcus aureus; with Pseudomonas aeruginosa; in the assay on Plasmodium falciparum [2]) was inactive. Further, the outcome (with Candida albicans; in [3]; in the assay on Cryptococcus neoformans; in assay [4]; with Plasmodium falciparum [5]) was inactive.
Consider `CC[C@H](C)[C@@H]1NC(=O)[C@@H]2CCCN2C(=O)[C@H](Cc2ccc(O)cc2)NC(=O)[C@@H]2CCCN2C(=O)[C@H](CC(C)C)NC(=O)[C@@H]2CCCN2C(=O)[C@H](Cc2ccccc2)NC1=O` (cyclo(FPLPYPI)), for which the result (with Microglia; in [1]; in the assay on Aspergillus fumigatus; with Staphylococcus aureus; in the assay on Pseudomonas aeruginosa; with Plasmodium falciparum [2]) was inactive. The result (in the assay on Candida albicans; in assay [3]; with Cryptococcus neoformans; in assay [4]; with Plasmodium falciparum [5]) was inactive.
The IC50 is the concentration needed to halve the response being measured. In general, inhibition refers to the change of the read-out against control, counted positive when it falls. Low values mean little suppression, high ones strong suppression. As for `Nc1ncc(/C=C/CNC(=O)c2cc(Br)c(Br)[nH]2)[nH]1` [OROIDIN], the result (in assay [1]; in the assay on Leishmania donovani; in the assay with Cryptococcus neoformans) was inactive. Moreover, the concentration for half-maximal inhibition (IC50) with Plasmodium falciparum [2] worked out at 1.2 µg/mL (≈ 3.08 µM). In assay [6], this compound displayed an inhibition at 128 µg/mL of 71%.
Turning to `CC(C)C[C@@H]1NC(=O)[C@H]([C@@H](C)O)NC(=O)[C@@H]2CCCN2C(=O)CNC(=O)[C@H](Cc2ccccc2)NC(=O)[C@@H]2CCCN2C(=O)[C@H](Cc2c[nH]c3ccccc23)NC1=O` [PHAKELLISTATIN 13] (cyclo(FGPTLWP)), the EC50 in the assay on Bel-7402 is < 0.01 µg/mL.
Consider `Nc1nc([C@H]2[C@H](CNC(=O)c3cc(Br)c[nH]3)[C@@H](CNC(=O)c3cc(Br)c[nH]3)[C@@H]2c2c[nH]c(N)n2)c[nH]1` [SCEPTRIN], for which the outcome (in [1]; in the assay on Leishmania donovani; in assay [6]) was inactive. The IC50 with Cryptococcus neoformans was found to be 3.5 µg/mL (≈ 5.64 µM).
Regarding `Nc1ncc(C2=CCNC(=O)c3[nH]c(Br)c(Br)c32)[nH]1` [STEVENSINE], the result (in assay [1]; with Leishmania donovani; with Cryptococcus neoformans) was inactive. Moreover, the 50% inhibitory concentration (IC50) with Plasmodium falciparum [2] worked out at 1.8 µg/mL (≈ 4.65 µM). Further, testing at 128 µg/mL in assay [6] gave an inhibition of 95%.
